The results in this text go back to US6407116B1, “Nitrogenous fused-ring compounds, process for the preparation of the same, and drugs” (Takeda Chemical Industries, Inc., priority 1997, dated 2002).

Molecules are shown by their SMILES. Counter-ions that a name gives are not always drawn.

A word on the melting point: it is the temperature, or range, at which the solid turns liquid. In turn, `Cl.O=c1c2ccccc2n(CCCCN2CCC(OC(c3ccccc3)c3ccccc3)CC2)c(=O)n1C1CCCCC1` displayed a melting point of 206 to 208 °C.
As to `COC(=O)Cn1c(=O)c2ccccc2n(CCCCN2CCC(OC(c3ccccc3)c3ccccc3)CC2)c1=O` [Example 15, Methyl 2,4-dioxo-1-[4-(4-diphenylmethoxypiperidino)butyl]-1,2,3,4-tetrahydroquinazoline-3-acetate], the melting point fell in the range of 91 to 93 °C.
With `O=c1[nH]c2ccccc2c(=O)n1CCCN1CCC(OC(c2ccccc2)c2ccccc2)CC1` [Example 79, 2,4-Dioxo-3-[3-(4-diphenylmethoxypiperidino)propyl]-1,2,3,4-tetrahydroquinazoline], the melting point lay within 173 to 175 °C.
Next, `Cl.Cn1c(=O)c2ccccc2n(CCCN2CCC(OC(c3ccccc3)c3ccccc3)CC2)c1=O`: 127 to 128 °C.
Next, `COC(=O)Cn1c(=O)c2ccccc2n(CCCN2CCC(OC(c3ccccc3)c3ccccc3)CC2)c1=O` [Example 14, Methyl 2,4-dioxo-1-[3-(4-diphenylmethoxypiperidino)propyl]-1,2,3,4-tetrahydroquinazoline-3-acetate]: 109 to 110 °C; `O=c1[nH]c(=O)n(CCCCN2CCC(OC(c3ccccc3)c3ccccc3)CC2)c2cc([N+](=O)[O-])ccc12` [Example 11, 2,4-Dioxo-1-[4-(4-diphenylmethoxypiperidino)butyl]-7-nitro-1,2,3,4-tetrahydroquinazoline]: 214 to 215 °C.
Next, `O=c1[nH]c2ccccc2c(=O)n1CCCCN1CCC(OC(c2ccccc2)c2ccccc2)CC1` [Example 80, 2,4-Dioxo-3-[4-(4-diphenylmethoxypiperidino)butyl]-1,2,3,4-tetrahydroquinazoline]: 140 to 142 °C; `N#CCCCCn1c(=O)c2ccccc2n(CCCCN2CCC(OC(c3ccccc3)c3ccccc3)CC2)c1=O` (as salt: hydrochloride) [Example 93, 2,4-Dioxo-1-[4-(4-diphenylmethoxypiperidino)butyl]-1,2,3,4-tetrahydroquinazoline-3-valeronitrile]: 119 to 121 °C.
Molecule `Nc1ccc2c(=O)[nH]c(=O)n(CCCCN3CCC(OC(c4ccccc4)c4ccccc4)CC3)c2c1` [Example 39, 7-Amino-2,4-dioxo-1-[4-(4-diphenylmethoxypiperidino)butyl]-1,2,3,4-tetrahydroquinazoline] registered a melting point of 162 to 164 °C.
Next, `O=c1[nH]c(=O)n(CCCCN2CCC(OC(c3ccccc3)c3ccccc3)CC2)c2cc(Cl)ccc12` [Example 9, 7-Chloro-2,4-dioxo-1-[4-(4-diphenylmethoxypiperidino)butyl]-1,2,3,4-tetrahydroquinazoline]: 169 to 171 °C.
Next, `O=C(O)CCn1c(=O)n(CCCN2CCC(OC(c3ccccc3)c3ccccc3)CC2)c(=O)c2ccccc21` [Example 75, 2,4-Dioxo-3-[3-(4-diphenylmethoxypiperidino)propyl]-1,2,3,4-tetrahydroquinazoline-1-propionic acid]: 237 to 238 °C; `O=C(O)Cn1c(=O)c2ccccc2n(CCCN2CCC(OC(c3ccccc3)c3ccccc3)CC2)c1=O` [Example 49, 2,4-Dioxo-1-[3-(4-diphenylmethoxypiperidino)propyl]-1,2,3,4-tetrahydroquinazoline-3-acetic acid]: 170 to 172 °C.
`N#Cn1c(=O)c2ccccc2n(CCCCN2CCC(OC(c3ccccc3)c3ccccc3)CC2)c1=O` [Example 92, 2,4-Dioxo-1-[4-(4-diphenylmethoxypiperidino)butyl]-1,2,3,4-tetrahydroquinazoline-3-carbonitrile]: the melting point lay within 106 to 107 °C.
The molecule `Cl.O=c1[nH]c(=O)n(CCCCN2CCC(c3c[nH]c4ccccc34)CC2)c2ccccc12` came in with a melting point of 250 to 252 °C.
